In PubChem BioAssay (NCI):
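Five concentrations, 48 hours, 96-well plates. TGI is the concentration that stops growth completely.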

Columns and labels:
Test in all cases: NCI anticancer screen, dose series, 48 h
[1] = test system: 786-0 renal
[2] = test system: A498 renal
[3] = test system: A549 NSCLC
[4] = test system: ACHN renal
[5] = test system: CAKI-1 renal
[6] = test system: COLO 205 colon
[7] = test system: DLD-1 colon
[8] = test system: DMS 114 small cell lung
[9] = test system: DMS 273 small cell lung
[10] = test system: EKVX NSCLC
[11] = test system: HCC-2998 colon
[12] = test system: HCT-116 colon
[13] = test system: HCT-15 colon
[14] = test system: HL-60(TB) leukemia
[15] = test system: HOP-62 NSCLC
[16] = test system: HOP-92 NSCLC
[17] = test system: HT29 colon
[18] = test system: IGROV1 ovarian
[19] = test system: LOX IMVI melanoma
[20] = test system: LXFL 529 NSCLC
[21] = test system: M14 melanoma
[22] = test system: M19-MEL melanoma
[23] = test system: MALME-3M melanoma
[24] = test system: MOLT-4 leukemia
[25] = test system: NCI-H226 lung
[26] = test system: NCI-H23 lung
[27] = test system: NCI-H460 lung
[28] = test system: NCI-H522 lung
[29] = test system: OVCAR-4 ovarian
[30] = test system: OVCAR-5 ovarian
[31] = test system: OVCAR-8 ovarian
[32] = test system: RPMI-8226 leukemia
[33] = test system: RXF 393 renal
[34] = test system: RXF-631 renal
[35] = test system: SF-268 CNS
[36] = test system: SF-295 CNS
[37] = test system: SF-539 CNS
[38] = test system: SK-MEL-2 melanoma
[39] = test system: SK-MEL-28 melanoma
[40] = test system: SK-MEL-5 melanoma
[41] = test system: SK-OV-3 ovarian
[42] = test system: SN12C renal
[43] = test system: SNB-75 CNS
[44] = test system: SNB-78 CNS
[45] = test system: SR leukemia
[46] = test system: SW-620 colon
[47] = test system: TK-10 renal
[48] = test system: U251 CNS
[49] = test system: UACC-257 melanoma
[50] = test system: UACC-62 melanoma
[51] = test system: UO-31 renal
[52] = test system: CCRF-CEM leukemia
[53] = test system: HOP-18 NSCLC
[54] = test system: K-562 leukemia
[55] = test system: KM20L2 colon
[56] = test system: OVCAR-3 ovarian
[57] = test system: SNB-19 CNS
[58] = test system: XF 498 CNS

Measured: TGI

O=[N+]([O-])c1ccc(/C(Cl)=C/c2ccc(/C=C(\Cl)c3ccc([N+](=O)[O-])cc3[N+](=O)[O-])cc2)c([N+](=O)[O-])c1
not listed: [52] | [53] | [54] | [55] | [56] | [57] | [58]
> 100 µM: all other assays above

O=C(Nc1ccccc1)c1cccc([N+](=O)[O-])c1
not listed: [7] | [14] | [19] | [20] | [21] | [25] | [26] | [27] | [28] | [29] | [30] | [33] | [34] | [36] | [38] | [41] | [45] | [47] | [49] | [51]
> 100 µM: all other assays above
